From ChEMBL document CHEMBL5444388, “Affinity Phenotypic Cellular Literature for EUbOPEN Chemogenomic Library” (2024)

Key:
Assay type in all cases: functional, cell-based
Parameters in all cases: recommended concentration 100 nM
[1] = target: Centromere-associated protein E (Homo sapiens) (UniProt Q02224); test: Affinity Phenotypic Cellular interaction: (Cell-growth inhibition assays (growth inhibitory effect colon cancer cell line 22Rv1)) EUB0000734a CENPE; conditions: CWR22R, Affinity Phenotypic Cellular Source Knowledge https://pubmed.ncbi.nlm.nih.gov/20167803/
[2] = target: Centromere-associated protein E (Homo sapiens) (UniProt Q02224); test: Affinity Phenotypic Cellular interaction: (Cell-growth inhibition assays (growth inhibitory effect colon cancer cell line 786-O)) EUB0000734a CENPE; conditions: 786-0, Affinity Phenotypic Cellular Source Knowledge https://pubmed.ncbi.nlm.nih.gov/20167803/
[3] = target: Centromere-associated protein E (Homo sapiens) (UniProt Q02224); test: Affinity Phenotypic Cellular interaction: (Cell-growth inhibition assays (growth inhibitory effect colon cancer cell line A2780)) EUB0000734a CENPE; conditions: Affinity Phenotypic Cellular Source Knowledge https://pubmed.ncbi.nlm.nih.gov/20167803/
[4] = target: Centromere-associated protein E (Homo sapiens) (UniProt Q02224); test: Affinity Phenotypic Cellular interaction: (Cell-growth inhibition assays (growth inhibitory effect colon cancer cell line A673)) EUB0000734a CENPE; conditions: Affinity Phenotypic Cellular Source Knowledge https://pubmed.ncbi.nlm.nih.gov/20167803/
[5] = target: Centromere-associated protein E (Homo sapiens) (UniProt Q02224); test: Affinity Phenotypic Cellular interaction: (Cell-growth inhibition assays (growth inhibitory effect colon cancer cell line BV-173)) EUB0000734a CENPE; conditions: Affinity Phenotypic Cellular Source Knowledge https://pubmed.ncbi.nlm.nih.gov/20167803/
[6] = target: Centromere-associated protein E (Homo sapiens) (UniProt Q02224); test: Affinity Phenotypic Cellular interaction: (Cell-growth inhibition assays (growth inhibitory effect colon cancer cell line C3A)) EUB0000734a CENPE; conditions: Affinity Phenotypic Cellular Source Knowledge https://pubmed.ncbi.nlm.nih.gov/20167803/
[7] = target: Centromere-associated protein E (Homo sapiens) (UniProt Q02224); test: Affinity Phenotypic Cellular interaction: (Cell-growth inhibition assays (growth inhibitory effect colon cancer cell line C-4I)) EUB0000734a CENPE; conditions: Affinity Phenotypic Cellular Source Knowledge https://pubmed.ncbi.nlm.nih.gov/20167803/
[8] = target: Centromere-associated protein E (Homo sapiens) (UniProt Q02224); test: Affinity Phenotypic Cellular interaction: (Cell-growth inhibition assays (growth inhibitory effect colon cancer cell line CAL-62)) EUB0000734a CENPE; conditions: Affinity Phenotypic Cellular Source Knowledge https://pubmed.ncbi.nlm.nih.gov/20167803/
[9] = target: Centromere-associated protein E (Homo sapiens) (UniProt Q02224); test: Affinity Phenotypic Cellular interaction: (Cell-growth inhibition assays (growth inhibitory effect colon cancer cell line CHP-212)) EUB0000734a CENPE; conditions: Affinity Phenotypic Cellular Source Knowledge https://pubmed.ncbi.nlm.nih.gov/20167803/
[10] = target: Centromere-associated protein E (Homo sapiens) (UniProt Q02224); test: Affinity Phenotypic Cellular interaction: (Cell-growth inhibition assays (growth inhibitory effect colon cancer cell line CRO-AP2)) EUB0000734a CENPE; conditions: Affinity Phenotypic Cellular Source Knowledge https://pubmed.ncbi.nlm.nih.gov/20167803/
[11] = target: Centromere-associated protein E (Homo sapiens) (UniProt Q02224); test: Affinity Phenotypic Cellular interaction: (Cell-growth inhibition assays (growth inhibitory effect colon cancer cell line DB)) EUB0000734a CENPE; conditions: Affinity Phenotypic Cellular Source Knowledge https://pubmed.ncbi.nlm.nih.gov/20167803/
[12] = target: Centromere-associated protein E (Homo sapiens) (UniProt Q02224); test: Affinity Phenotypic Cellular interaction: (Cell-growth inhibition assays (growth inhibitory effect colon cancer cell line DLD-1)) EUB0000734a CENPE; conditions: Affinity Phenotypic Cellular Source Knowledge https://pubmed.ncbi.nlm.nih.gov/20167803/
[13] = target: Centromere-associated protein E (Homo sapiens) (UniProt Q02224); test: Affinity Phenotypic Cellular interaction: (Cell-growth inhibition assays (growth inhibitory effect colon cancer cell line DoTc2-4510)) EUB0000734a CENPE; conditions: Affinity Phenotypic Cellular Source Knowledge https://pubmed.ncbi.nlm.nih.gov/20167803/
[14] = target: Centromere-associated protein E (Homo sapiens) (UniProt Q02224); test: Affinity Phenotypic Cellular interaction: (Cell-growth inhibition assays (growth inhibitory effect colon cancer cell line EFM-19)) EUB0000734a CENPE; conditions: Affinity Phenotypic Cellular Source Knowledge https://pubmed.ncbi.nlm.nih.gov/20167803/
[15] = target: Centromere-associated protein E (Homo sapiens) (UniProt Q02224); test: Affinity Phenotypic Cellular interaction: (Cell-growth inhibition assays (growth inhibitory effect colon cancer cell line EKVX)) EUB0000734a CENPE; conditions: Affinity Phenotypic Cellular Source Knowledge https://pubmed.ncbi.nlm.nih.gov/20167803/
[16] = target: Centromere-associated protein E (Homo sapiens) (UniProt Q02224); test: Affinity Phenotypic Cellular interaction: (Cell-growth inhibition assays (growth inhibitory effect colon cancer cell line G-401)) EUB0000734a CENPE; conditions: Affinity Phenotypic Cellular Source Knowledge https://pubmed.ncbi.nlm.nih.gov/20167803/
[17] = target: Centromere-associated protein E (Homo sapiens) (UniProt Q02224); test: Affinity Phenotypic Cellular interaction: (Cell-growth inhibition assays (growth inhibitory effect colon cancer cell line G-402)) EUB0000734a CENPE; conditions: Affinity Phenotypic Cellular Source Knowledge https://pubmed.ncbi.nlm.nih.gov/20167803/
[18] = target: Centromere-associated protein E (Homo sapiens) (UniProt Q02224); test: Affinity Phenotypic Cellular interaction: (Cell-growth inhibition assays (growth inhibitory effect colon cancer cell line HCC1954)) EUB0000734a CENPE; conditions: Affinity Phenotypic Cellular Source Knowledge https://pubmed.ncbi.nlm.nih.gov/20167803/
[19] = target: Centromere-associated protein E (Homo sapiens) (UniProt Q02224); test: Affinity Phenotypic Cellular interaction: (Cell-growth inhibition assays (growth inhibitory effect colon cancer cell line HCT-8)) EUB0000734a CENPE; conditions: Affinity Phenotypic Cellular Source Knowledge https://pubmed.ncbi.nlm.nih.gov/20167803/
[20] = target: Centromere-associated protein E (Homo sapiens) (UniProt Q02224); test: Affinity Phenotypic Cellular interaction: (Cell-growth inhibition assays (growth inhibitory effect colon cancer cell line HT-3)) EUB0000734a CENPE; conditions: Affinity Phenotypic Cellular Source Knowledge https://pubmed.ncbi.nlm.nih.gov/20167803/
[21] = target: Centromere-associated protein E (Homo sapiens) (UniProt Q02224); test: Affinity Phenotypic Cellular interaction: (Cell-growth inhibition assays (growth inhibitory effect colon cancer cell line MDA-MB-435)) EUB0000734a CENPE; conditions: Affinity Phenotypic Cellular Source Knowledge https://pubmed.ncbi.nlm.nih.gov/20167803/
[22] = target: Centromere-associated protein E (Homo sapiens) (UniProt Q02224); test: Affinity Phenotypic Cellular interaction: (Cell-growth inhibition assays (growth inhibitory effect breast cancer cell line MT-3)) EUB0000734a CENPE; conditions: Affinity Phenotypic Cellular Source Knowledge https://pubmed.ncbi.nlm.nih.gov/20167803/
[23] = target: Centromere-associated protein E (Homo sapiens) (UniProt Q02224); test: Affinity Phenotypic Cellular interaction: (Cell-growth inhibition assays (growth inhibitory effect colon cancer cell line NCI/ADR-RES)) EUB0000734a CENPE; conditions: Affinity Phenotypic Cellular Source Knowledge https://pubmed.ncbi.nlm.nih.gov/20167803/
[24] = target: Centromere-associated protein E (Homo sapiens) (UniProt Q02224); test: Affinity Phenotypic Cellular interaction: (Cell-growth inhibition assays (growth inhibitory effect colon cancer cell line OV-90)) EUB0000734a CENPE; conditions: Affinity Phenotypic Cellular Source Knowledge https://pubmed.ncbi.nlm.nih.gov/20167803/
[25] = target: Centromere-associated protein E (Homo sapiens) (UniProt Q02224); test: Affinity Phenotypic Cellular interaction: (Cell-growth inhibition assays (growth inhibitory effect colon cancer cell line PC-3)) EUB0000734a CENPE; conditions: Affinity Phenotypic Cellular Source Knowledge https://pubmed.ncbi.nlm.nih.gov/20167803/
[26] = target: Centromere-associated protein E (Homo sapiens) (UniProt Q02224); test: Affinity Phenotypic Cellular interaction: (Cell-growth inhibition assays (growth inhibitory effect colon cancer cell line RXF393)) EUB0000734a CENPE; conditions: RXF 393, Affinity Phenotypic Cellular Source Knowledge https://pubmed.ncbi.nlm.nih.gov/20167803/
[27] = target: Centromere-associated protein E (Homo sapiens) (UniProt Q02224); test: Affinity Phenotypic Cellular interaction: (Cell-growth inhibition assays (growth inhibitory effect colon cancer cell line SK-MEL-3)) EUB0000734a CENPE; conditions: SK-MEL3, Affinity Phenotypic Cellular Source Knowledge https://pubmed.ncbi.nlm.nih.gov/20167803/
[28] = target: Centromere-associated protein E (Homo sapiens) (UniProt Q02224); test: Affinity Phenotypic Cellular interaction: (Cell-growth inhibition assays (growth inhibitory effect colon cancer cell line SK-NEP-1)) EUB0000734a CENPE; conditions: Affinity Phenotypic Cellular Source Knowledge https://pubmed.ncbi.nlm.nih.gov/20167803/
[29] = target: Centromere-associated protein E (Homo sapiens) (UniProt Q02224); test: Affinity Phenotypic Cellular interaction: (Cell-growth inhibition assays (growth inhibitory effect colon cancer cell line SNB-19)) EUB0000734a CENPE; conditions: Affinity Phenotypic Cellular Source Knowledge https://pubmed.ncbi.nlm.nih.gov/20167803/
[30] = target: Centromere-associated protein E (Homo sapiens) (UniProt Q02224); test: Affinity Phenotypic Cellular interaction: (Cell-growth inhibition assays (growth inhibitory effect colon cancer cell line SNU-398)) EUB0000734a CENPE; conditions: Affinity Phenotypic Cellular Source Knowledge https://pubmed.ncbi.nlm.nih.gov/20167803/
[31] = target: Centromere-associated protein E (Homo sapiens) (UniProt Q02224); test: Affinity Phenotypic Cellular interaction: (Cell-growth inhibition assays (growth inhibitory effect colon cancer cell line SNU-423)) EUB0000734a CENPE; conditions: Affinity Phenotypic Cellular Source Knowledge https://pubmed.ncbi.nlm.nih.gov/20167803/
[32] = target: Centromere-associated protein E (Homo sapiens) (UniProt Q02224); test: Affinity Phenotypic Cellular interaction: (Cell-growth inhibition assays (growth inhibitory effect colon cancer cell line SW1088)) EUB0000734a CENPE; conditions: Affinity Phenotypic Cellular Source Knowledge https://pubmed.ncbi.nlm.nih.gov/20167803/
[33] = target: Centromere-associated protein E (Homo sapiens) (UniProt Q02224); test: Affinity Phenotypic Cellular interaction: (Cell-growth inhibition assays (growth inhibitory effect colon cancer cell line SW48)) EUB0000734a CENPE; conditions: Affinity Phenotypic Cellular Source Knowledge https://pubmed.ncbi.nlm.nih.gov/20167803/
[34] = target: Centromere-associated protein E (Homo sapiens) (UniProt Q02224); test: Affinity Phenotypic Cellular interaction: (Cell-growth inhibition assays (growth inhibitory effect colon cancer cell line SW480)) EUB0000734a CENPE; conditions: Affinity Phenotypic Cellular Source Knowledge https://pubmed.ncbi.nlm.nih.gov/20167803/
[35] = target: Centromere-associated protein E (Homo sapiens) (UniProt Q02224); test: Affinity Phenotypic Cellular interaction: (Cell-growth inhibition assays (growth inhibitory effect colon cancer cell line T-47D)) EUB0000734a CENPE; conditions: T47D, Affinity Phenotypic Cellular Source Knowledge https://pubmed.ncbi.nlm.nih.gov/20167803/
[36] = target: Centromere-associated protein E (Homo sapiens) (UniProt Q02224); test: Affinity Phenotypic Cellular interaction: (Cell-growth inhibition assays (growth inhibitory effect sarcoma cancer cell line TE381.T)) EUB0000734a CENPE; conditions: TE 381.T, Affinity Phenotypic Cellular Source Knowledge https://pubmed.ncbi.nlm.nih.gov/20167803/
[37] = target: Centromere-associated protein E (Homo sapiens) (UniProt Q02224); test: Affinity Phenotypic Cellular interaction: (Cell-growth inhibition assays (growth inhibitory effect colon cancer cell line WiDr)) EUB0000734a CENPE; conditions: Affinity Phenotypic Cellular Source Knowledge https://pubmed.ncbi.nlm.nih.gov/20167803/
[38] = target: Centromere-associated protein E (Homo sapiens) (UniProt Q02224); test: Affinity Phenotypic Cellular interaction: (Cell-growth inhibition assays (growth inhibitory effect colon cancer cell line Y79)) EUB0000734a CENPE; conditions: Affinity Phenotypic Cellular Source Knowledge https://pubmed.ncbi.nlm.nih.gov/20167803/

Centromere-associated protein E (Homo sapiens), sequence (Q02224 whole entry): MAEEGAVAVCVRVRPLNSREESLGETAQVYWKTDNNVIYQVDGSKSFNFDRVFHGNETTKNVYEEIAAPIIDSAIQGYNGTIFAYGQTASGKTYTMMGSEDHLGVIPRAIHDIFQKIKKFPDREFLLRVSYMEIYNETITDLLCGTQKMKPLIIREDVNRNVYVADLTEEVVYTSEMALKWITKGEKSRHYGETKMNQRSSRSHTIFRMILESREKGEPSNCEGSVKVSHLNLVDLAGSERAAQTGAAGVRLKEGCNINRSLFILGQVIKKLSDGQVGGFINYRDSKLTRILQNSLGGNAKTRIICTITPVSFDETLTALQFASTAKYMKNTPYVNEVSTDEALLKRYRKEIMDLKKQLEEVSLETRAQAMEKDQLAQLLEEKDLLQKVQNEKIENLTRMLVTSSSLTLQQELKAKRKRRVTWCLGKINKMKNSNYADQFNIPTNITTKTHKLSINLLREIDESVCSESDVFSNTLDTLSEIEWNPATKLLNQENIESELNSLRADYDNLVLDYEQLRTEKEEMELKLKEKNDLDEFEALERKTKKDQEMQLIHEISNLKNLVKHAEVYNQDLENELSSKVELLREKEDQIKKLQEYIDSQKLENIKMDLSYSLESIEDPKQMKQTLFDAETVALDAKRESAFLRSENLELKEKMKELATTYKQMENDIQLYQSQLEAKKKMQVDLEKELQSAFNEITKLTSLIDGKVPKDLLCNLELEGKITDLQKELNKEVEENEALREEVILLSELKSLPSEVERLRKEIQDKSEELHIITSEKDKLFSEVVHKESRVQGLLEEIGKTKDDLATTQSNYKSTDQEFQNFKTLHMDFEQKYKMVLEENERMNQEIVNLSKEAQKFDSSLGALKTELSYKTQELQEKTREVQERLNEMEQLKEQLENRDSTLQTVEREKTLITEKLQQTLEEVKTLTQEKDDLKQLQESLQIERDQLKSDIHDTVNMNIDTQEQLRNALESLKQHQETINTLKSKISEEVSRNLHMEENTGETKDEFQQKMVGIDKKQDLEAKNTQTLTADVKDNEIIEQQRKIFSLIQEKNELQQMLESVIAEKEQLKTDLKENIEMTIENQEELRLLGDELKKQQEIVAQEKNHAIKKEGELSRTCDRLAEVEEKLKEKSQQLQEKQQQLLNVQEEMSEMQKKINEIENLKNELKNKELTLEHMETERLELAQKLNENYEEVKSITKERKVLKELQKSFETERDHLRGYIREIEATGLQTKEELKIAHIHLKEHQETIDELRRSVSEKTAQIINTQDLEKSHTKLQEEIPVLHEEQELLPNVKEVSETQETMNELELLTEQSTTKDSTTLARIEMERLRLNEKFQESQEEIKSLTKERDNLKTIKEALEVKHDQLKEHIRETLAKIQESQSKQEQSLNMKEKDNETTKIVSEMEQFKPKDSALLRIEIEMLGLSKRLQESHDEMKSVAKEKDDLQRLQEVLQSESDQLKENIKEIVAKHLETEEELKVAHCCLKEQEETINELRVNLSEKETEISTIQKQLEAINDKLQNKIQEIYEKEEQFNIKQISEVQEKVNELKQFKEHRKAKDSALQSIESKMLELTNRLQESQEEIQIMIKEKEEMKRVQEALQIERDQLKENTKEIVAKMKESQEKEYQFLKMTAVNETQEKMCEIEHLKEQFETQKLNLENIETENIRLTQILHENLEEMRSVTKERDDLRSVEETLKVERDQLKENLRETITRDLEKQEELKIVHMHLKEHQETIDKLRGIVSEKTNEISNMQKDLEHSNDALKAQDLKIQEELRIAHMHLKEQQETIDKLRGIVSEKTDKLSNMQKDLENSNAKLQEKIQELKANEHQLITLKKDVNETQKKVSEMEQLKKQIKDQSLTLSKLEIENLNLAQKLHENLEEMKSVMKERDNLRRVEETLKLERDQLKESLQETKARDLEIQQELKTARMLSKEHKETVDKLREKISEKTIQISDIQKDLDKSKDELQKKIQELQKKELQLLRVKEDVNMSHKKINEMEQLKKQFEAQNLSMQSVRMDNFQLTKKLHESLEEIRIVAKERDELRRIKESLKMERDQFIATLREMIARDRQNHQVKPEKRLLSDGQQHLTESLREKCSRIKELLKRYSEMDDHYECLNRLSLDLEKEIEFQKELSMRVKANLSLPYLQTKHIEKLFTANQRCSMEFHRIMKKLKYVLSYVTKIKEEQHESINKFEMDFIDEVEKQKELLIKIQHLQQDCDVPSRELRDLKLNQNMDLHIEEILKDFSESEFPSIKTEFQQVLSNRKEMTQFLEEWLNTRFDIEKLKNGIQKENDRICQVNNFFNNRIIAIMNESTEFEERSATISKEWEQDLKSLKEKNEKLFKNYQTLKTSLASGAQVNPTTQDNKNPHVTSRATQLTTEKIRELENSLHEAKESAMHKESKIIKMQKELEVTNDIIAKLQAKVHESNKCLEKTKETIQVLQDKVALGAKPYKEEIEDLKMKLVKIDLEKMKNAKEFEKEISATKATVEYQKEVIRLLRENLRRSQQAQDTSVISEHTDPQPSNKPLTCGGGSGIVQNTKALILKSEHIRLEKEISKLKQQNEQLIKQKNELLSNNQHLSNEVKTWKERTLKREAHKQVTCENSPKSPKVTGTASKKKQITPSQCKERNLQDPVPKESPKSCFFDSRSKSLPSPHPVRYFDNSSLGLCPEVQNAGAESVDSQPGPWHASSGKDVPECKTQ

CC(C)Oc1ccc(C(=O)N[C@H](CNC(=O)CN(C)C)Cc2ccc(-c3cn4cccc([C@H](C)O)c4n3)cc2)cc1Cl
GIC50 [1]: 29 nM | GIC50 [2]: 45 nM | GIC50 [3]: 13 nM | GIC50 [4]: 23 nM | GIC50 [5]: 56 nM | GIC50 [6]: 54 nM | GIC50 [7]: 42 nM | GIC50 [8]: 30 nM | GIC50 [9]: 34 nM | GIC50 [10]: 51 nM | GIC50 [11]: 21 nM | GIC50 [12]: 60 nM | GIC50 [13]: 33 nM | GIC50 [14]: 28 nM | GIC50 [15]: 28 nM | GIC50 [16]: 26 nM | GIC50 [17]: 31 nM | GIC50 [18]: 18 nM | GIC50 [19]: 35 nM | GIC50 [20]: 10 µM | GIC50 [21]: 30 nM | GIC50 [22]: 41 nM | GIC50 [23]: 3.96 µM | GIC50 [24]: 61 nM | GIC50 [25]: 28 nM | GIC50 [26]: 32 nM | GIC50 [27]: 30 nM | GIC50 [28]: 55 nM | GIC50 [29]: 28 nM | GIC50 [30]: 27 nM | GIC50 [31]: 34 nM | GIC50 [32]: 32 nM | GIC50 [33]: 25 nM | GIC50 [34]: 33 nM | GIC50 [35]: 29 nM | GIC50 [36]: 27 nM | GIC50 [37]: 18 nM | GIC50 [38]: 70 nM
